Assay results reported in ChEMBL document CHEMBL3580639, “Bioactive Limonoid Constituents of Munronia henryi” (J Nat Prod, 2015).
Values after ≈ are worked out from the molar mass of the structure shown.

Legend:
SW480 = experiment: Cytotoxicity against human SW480 cells incubated for 48 hrs by MTT assay; assay type: functional, cell-based; conditions: SW480, 48 h
Tobacco mosaic virus [1] = experiment: Antiviral activity against 30 mins compound pre-treated TMV U1 infected on Nicotiana glutinosa leaves assessed as virus inactivation effect by measuring local lesion numbers after 3 to 4 days post virus inoculation at 50 ug/ml by half-leaf method; assay type: functional; conditions: U1, in Nicotiana glutinosa
Tobacco mosaic virus [2] = experiment: Antiviral activity against TMV U1 infected on compound smeared Nicotiana glutinosa leaves assessed as virus infection protective effect by measuring local lesion numbers after 3 to 4 days post virus inoculation at 200 ug/ml by half-leaf method; assay type: functional; conditions: U1, in Nicotiana glutinosa
MCF7 = experiment: Cytotoxicity against human MCF7 cells incubated for 48 hrs by MTT assay; assay type: functional, cell-based; conditions: MCF7, 48 h
Tobacco mosaic virus [3] = experiment: Antiviral activity against TMV U1 infected on 20 mins compound treated fresh leaves from 5 to 6 growth stage Nicotiana glutinosa assessed as inhibition of virus growth at 50 ug/ml cultured at 25 degC for 72 hrs by half-leaf method; assay type: functional; conditions: U1, in Nicotiana glutinosa
Tobacco mosaic virus [4] = experiment: Antiviral activity against TMV U1 infected on Nicotiana glutinosa leaves smeared with virus before compound treatment assessed as virus infection curative effect by measuring local lesion numbers after 3 to 4 days post virus inoculation at 200 ug/ml by half-leaf method; assay type: functional; conditions: U1, in Nicotiana glutinosa
SMMC-7721 = experiment: Cytotoxicity against human SMMC7721 cells incubated for 48 hrs by MTT assay; assay type: functional, cell-based; conditions: SMMC-7721, 48 h
A549 = experiment: Cytotoxicity against human A549 cells incubated for 48 hrs by MTT assay; assay type: functional, cell-based; conditions: A549, 48 h
HL-60 = experiment: Cytotoxicity against human HL60 cells incubated for 48 hrs by MTT assay; assay type: functional, cell-based; conditions: HL-60, 48 h
Tobacco mosaic virus [5] = experiment: Antiviral activity against 30 mins compound pre-treated TMV U1 infected on Nicotiana glutinosa leaves assessed as virus inactivation effect by measuring local lesion numbers after 3 to 4 days post virus inoculation at 40 ug/ml by half-leaf method relative to untreated control; assay type: functional; conditions: U1, in Nicotiana glutinosa
Tobacco mosaic virus [6] = experiment: Antiviral activity against 30 mins compound pre-treated TMV U1 infected on Nicotiana glutinosa leaves assessed as virus inactivation effect by measuring local lesion numbers after 3 to 4 days post virus inoculation at 10 ug/ml by half-leaf method relative to untreated control; assay type: functional; conditions: U1, in Nicotiana glutinosa
Tobacco mosaic virus [7] = experiment: Antiviral activity against 30 mins compound pre-treated TMV U1 infected on Nicotiana glutinosa leaves assessed as virus inactivation effect by measuring local lesion numbers after 3 to 4 days post virus inoculation at 30 ug/ml by half-leaf method relative to untreated control; assay type: functional; conditions: U1, in Nicotiana glutinosa
Tobacco mosaic virus [8] = experiment: Antiviral activity against 30 mins compound pre-treated TMV U1 infected on Nicotiana glutinosa leaves assessed as virus inactivation effect by measuring local lesion numbers after 3 to 4 days post virus inoculation at 20 ug/ml by half-leaf method relative to untreated control; assay type: functional; conditions: U1, in Nicotiana glutinosa
Tobacco mosaic virus [9] = experiment: Antiviral activity against 30 mins compound pre-treated TMV U1 infected on Nicotiana glutinosa leaves assessed as virus inactivation effect by measuring local lesion numbers after 3 to 4 days post virus inoculation by half-leaf method relative to untreated control; assay type: functional, organism-based
Tobacco mosaic virus [10] = experiment: Antiviral activity against 30 mins compound pre-treated TMV U1 infected on Nicotiana glutinosa leaves assessed as virus inactivation effect by measuring local lesion numbers after 3 to 4 days post virus inoculation at 50 ug/ml by half-leaf method relative to untreated control; assay type: functional; conditions: U1, in Nicotiana glutinosa
Tobacco mosaic virus [11] = experiment: Antiviral activity against 30 mins compound pre-treated TMV U1 infected on Nicotiana glutinosa leaves assessed as virus inactivation effect by measuring local lesion numbers after 3 to 4 days post virus inoculation at 5 ug/ml by half-leaf method relative to untreated control; assay type: functional; conditions: U1, in Nicotiana glutinosa

SMILES	IC50 (SW480)	inhibition at 50 µg/mL (Tobacco mosaic virus [1])	inhibition at 200 µg/mL (Tobacco mosaic virus [2])	IC50 (MCF7)	inhibition at 50 µg/mL (Tobacco mosaic virus [3])	inhibition at 200 µg/mL (Tobacco mosaic virus [4])	IC50 (SMMC-7721)	IC50 (A549)	IC50 (HL-60)	inhibition at 40 µg/mL (Tobacco mosaic virus [5])	inhibition at 10 µg/mL (Tobacco mosaic virus [6])	inhibition at 30 µg/mL (Tobacco mosaic virus [7])	inhibition at 20 µg/mL (Tobacco mosaic virus [8])	IC50 (Tobacco mosaic virus [9])	inhibition at 50 µg/mL (Tobacco mosaic virus [10])	inhibition at 5 µg/mL (Tobacco mosaic virus [11])
C=C1[C@@H]([C@@]2(C)C=CC(=O)OC(C)(C)[C@@H]2CC(=O)OC)[C@@H](OC(C)=O)[C@H](OC(C)=O)[C@@]2(C)[C@H](C(=O)O)C[C@H]3O[C@]132	> 10 µM	32.5%	30.5%	> 10 µM	30.7%	27.3%	> 10 µM	> 10 µM	> 10 µM							
CC(=O)O[C@@H]1[C@@H]2[C@@]3(C)[C@@H](OC(C)=O)CC(=O)OC(C)(C)[C@@H]3CC(=O)[C@@]2(C)[C@@]23O[C@@H]2C[C@@H](c2ccoc2)[C@]3(C)[C@H]1OC(C)=O	> 10 µM	95.3%	60.2%	> 10 µM	97.6%	57.6%	> 10 µM	> 10 µM	> 10 µM	91.4%	28.7%	80.3%	64.9%	20.4 µg/mL (≈ 34 µM)	93.9%	9.7%
CC(=O)O[C@H]1C[C@@H]2[C@@]3(C)[C@@H](OC(C)=O)CC(=O)OC(C)(C)[C@@H]3CC[C@@]2(C)C2=CC[C@@H](c3ccoc3)[C@@]21C	> 10 µM	81.8%	36.4%	> 10 µM	89%	29.9%	> 10 µM	> 10 µM	> 10 µM	73.7%	20.3%	63.4%	38.1%	27.7 µg/mL (≈ 54 µM)	83.6%	
C/C=C(\C)C(=O)O[C@H]1C[C@@H](OC(C)=O)[C@@]2(C)CO[C@H]3[C@@H](O)[C@@]4(C)C5=C(C)[C@H](c6ccoc6)C[C@@H]5O[C@H](OC)C[C@@H]4[C@]1(C)[C@@H]32	> 10 µM	91.4%	63.8%	> 10 µM	97.9%	59.6%	> 10 µM	> 10 µM	> 10 µM	79.8%	20.5%	68.2%	39.7%	25.8 µg/mL (≈ 43.1 µM)	92.8%	
C/C=C(\C)C(=O)O[C@H]1C[C@@H](OC(C)=O)[C@@]2(C)CO[C@H]3[C@@H](O)[C@@]4(C)C5=C(C)[C@H](c6ccoc6)C[C@H]5O[C@@H](OC)C[C@@H]4[C@]1(C)[C@@H]32	> 10 µM	88.9%	63.8%	> 10 µM	98.5%	44.9%	> 10 µM	> 10 µM	> 10 µM	70.3%	16.4%	63.5%	30.7%	28.1 µg/mL (≈ 46.9 µM)	86.9%	6.3%
C/C=C(\C)C(=O)O[C@H]1C[C@@H](OC(C)=O)[C@@]2(C)CO[C@H]3[C@@H](O)[C@@]4(C)C5=C(C)[C@H](c6ccoc6)C[C@@H]5OC=C[C@@H]4[C@]1(C)[C@@H]32	> 10 µM	38.5%	24.7%	> 10 µM	49.3%	20.1%	> 10 µM	> 10 µM	> 10 µM							
CC(=O)O[C@H]1[C@@H](OC(C)=O)[C@@]2(C)C3=CC[C@@H](c4ccoc4)[C@]3(C)CC[C@@H]2[C@@]2(C)[C@@H](O)C[C@@H](OC(C)=O)C(C)(C)[C@H]12	> 10 µM	30.2%	25.3%	> 10 µM	33.6%	23.6%	> 10 µM	> 10 µM	> 10 µM							
C/C=C(\C)C(=O)O[C@H]1C[C@@H](OC(C)=O)[C@@]2(C)CO[C@H]3[C@@H](O)[C@]4(C)[C@H](CC(OC)O[C@H]5C[C@@H](c6ccoc6)C(C)[C@H]54)[C@]1(C)[C@@H]32 (stereo partly drawn)	> 10 µM	31.5%	50%	> 10 µM	43.9%	53.6%	> 10 µM	> 10 µM	> 10 µM							
CO[C@H]1C[C@H]2[C@](C)(C3=C(C)[C@H](c4ccoc4)C[C@@H]3O1)[C@H](O)[C@@H]1OC[C@]3(C)[C@H](OC(C)=O)C[C@H](OC(=O)c4ccccc4)[C@@]2(C)[C@@H]13	> 10 µM	30.9%	15%	> 10 µM	41.5%	19.3%	> 10 µM	> 10 µM	> 10 µM							
COC(=O)C[C@@H]1C(C)=C/C(=C\C2=C[C@@H](OC(C)=O)[C@H](OC(C)=O)[C@]3(C)C2=CC[C@H]3c2ccoc2)C(=O)OC1(C)C	> 10 µM	27.6%	28.3%	> 10 µM	30.1%	27.9%	> 10 µM	> 10 µM	> 10 µM							
CC(=O)O[C@@H]1[C@H](O)[C@H]2C(C)(C)[C@H](OC(C)=O)C[C@H](OC(C)=O)[C@]2(C)[C@H]2CC[C@]3(C)C(=CC[C@H]3c3ccoc3)[C@]12C	> 10 µM	21.2%	19.4%	> 10 µM	18.5%	15.4%	> 10 µM	> 10 µM	> 10 µM							
C/C=C(\C)C(=O)O[C@@H]1[C@@H]2OC[C@]3(C)[C@H](OC(C)=O)C[C@H](O)[C@@](C)([C@@H]23)[C@H]2CCO[C@H]3C[C@@H](C4=CCOC4=O)C(C)=C3[C@]12C [CHISONIMBOLININ F]	> 10 µM	34.1%	17.3%	> 10 µM	44.5%	20.5%	> 10 µM	> 10 µM	> 10 µM							
C=C1[C@@H]([C@@]2(C)C=CC(=O)O[C@](C)(COC(C)=O)[C@@H]2CC(=O)OC)[C@@H](OC=O)[C@H](OC(=O)[C@H](O)[C@H](C)CC)[C@@]2(C)[C@@H](c3ccoc3)C[C@H]3O[C@]132 [MOMBASOL]	> 10 µM	38.9%	31.6%	> 10 µM	47.6%	28.1%	> 10 µM	> 10 µM	> 10 µM							
CNCC(=O)N[C@@H](CO)C(=O)N[C@H]1[C@H](O)[C@@H](O)[C@H](n2ccc(N)nc2=O)O[C@@H]1C(N)=O [NINGNANMYCIN]		58.9%	50.2%		69.2%	40.7%				38.6%	17.9%	33.9%	20.8%	44.6 µg/mL (≈ 101 µM)	57.3%	
CC(=O)O[C@H]1C(=O)[C@@]2(C)[C@H]([C@H](OC(=O)c3ccccc3)[C@]3(O)C[C@H](OC(=O)[C@H](O)[C@@H](NC(=O)c4ccccc4)c4ccccc4)C(C)=C1C3(C)C)[C@]1(OC(C)=O)CO[C@@H]1C[C@@H]2O [PACLITAXEL]	< 0.008 µM			< 0.008 µM			< 0.008 µM	< 0.008 µM	< 0.008 µM							
C=C1[C@@H]([C@@]2(C)[C@@H](OC(C)=O)CC(=O)O[C@](C)(COC(C)=O)[C@@H]2C(=O)OC)[C@@H](OC=O)[C@H](OC(=O)[C@H](O)[C@H](C)CC)[C@@]2(C)[C@H](c3ccoc3)CC(=O)[C@]12O [PRIEURIANIN]	1.2 µM	68.1%	45.7%	2.2 µM	75.9%	41.6%	0.73 µM	1 µM	4.8 µM	39.3%	3.5%	35.6%	11.7%	44.4 µg/mL (≈ 59.3 µM)	70.5%	
